According to patent publication US20060148858A1, “1, 2-Azole derivatives with hypoglycemic and hypolipidemic activity” (priority 2002, published 2006):
Read-outs that look alike come from different tables or passages of the source.

Tests used:
KKAY mice = assay: Hypoglycemic and hypolipidemic actions in mice (Test Example 1); type: in vivo; conditions: Mus musculus, po, 96 h, 0.005% in powdery diet, four days, non-treated group taken as 100%
In short: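 KKAY mice (9 to 12 weeks old, 5 per group) were fed diet containing 0.005% test compound ad libitum for four days. Plasma glucose and triglycerides from orbital venous blood were measured enzymatically, reported as % decrease relative to untreated group (100%).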

PPARγ-RXRα heterodimer = molecular target: T1, PPARγ-RXRα heterodimer (Homo sapiens, UniProt P37231); assay: PPARγ-RXRα heterodimer ligand activity, luciferase reporter in PPARγ:RXRα:4ERPP/CHO-K1 cells (Test Example 3); type: cell-based; conditions: 18-48 hours, concentration for 50% of the maximum fold induction
T1 construct: expressed in transfected cells; host or cells: CHO-K1
T1 sequence (P37231 1-477 isoform P37231-2): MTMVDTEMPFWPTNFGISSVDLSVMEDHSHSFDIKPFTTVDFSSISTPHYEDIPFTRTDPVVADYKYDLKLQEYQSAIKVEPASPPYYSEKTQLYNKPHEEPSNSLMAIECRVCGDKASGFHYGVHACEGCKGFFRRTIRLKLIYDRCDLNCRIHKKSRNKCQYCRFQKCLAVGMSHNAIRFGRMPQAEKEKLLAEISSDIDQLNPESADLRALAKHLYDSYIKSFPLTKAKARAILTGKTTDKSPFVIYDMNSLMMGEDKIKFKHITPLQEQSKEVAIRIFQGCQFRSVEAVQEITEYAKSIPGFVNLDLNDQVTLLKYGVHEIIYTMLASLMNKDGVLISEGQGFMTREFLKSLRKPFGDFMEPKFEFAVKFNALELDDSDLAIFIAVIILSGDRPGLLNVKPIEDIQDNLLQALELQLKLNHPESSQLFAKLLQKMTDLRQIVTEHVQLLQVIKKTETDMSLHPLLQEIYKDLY
T1 sequence (P19793 1-462 partner): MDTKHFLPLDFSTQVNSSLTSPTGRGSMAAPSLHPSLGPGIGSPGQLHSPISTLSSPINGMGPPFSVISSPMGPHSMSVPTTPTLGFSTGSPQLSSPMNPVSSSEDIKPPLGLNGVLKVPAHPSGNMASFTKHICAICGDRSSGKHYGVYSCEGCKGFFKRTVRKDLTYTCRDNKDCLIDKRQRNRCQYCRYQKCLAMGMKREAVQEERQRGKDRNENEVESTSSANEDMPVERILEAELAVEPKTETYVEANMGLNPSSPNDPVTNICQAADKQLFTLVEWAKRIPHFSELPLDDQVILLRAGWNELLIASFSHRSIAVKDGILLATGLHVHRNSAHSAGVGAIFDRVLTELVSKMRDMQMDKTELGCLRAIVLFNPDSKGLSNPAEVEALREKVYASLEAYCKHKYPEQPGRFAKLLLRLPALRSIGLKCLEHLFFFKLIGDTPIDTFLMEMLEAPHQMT
In short: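 Stable CHO-K1 line co-expressing hPPARγ/RXR with 4ERPP-TK luciferase reporter, 2×10^4 cells per well, treated 18-48 h at 37° C. in HAM F12 with 0.1% fatty acid-free BSA. Luciferase fold induction versus untreated taken as 1; EC50 is concentration giving 50% of maximal fold induction.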

[1] = rate of decrease in blood glucose level, read-out: Hypoglycemic action (%)
[2] = rate of decrease in blood triglyceride level, read-out: Hypolipidemic action (%)

Structure (SMILES)	inhibition in vivo at 0.005 % in diet (KKAY mice; [1]) [%]	inhibition in vivo at 0.005 % in diet (KKAY mice; [2]) [%]	EC50 (PPARγ-RXRα heterodimer) [nM]	melting point [°C]
COc1cccc(CC(=O)O)c1OCCCc1cn(-c2ccc(Cl)cn2)nc1C(C)C [Example 311, (2-{3-[1-(5-chloro-2-pyridinyl)-3-isopropyl-1H-pyrazol-4-yl]propoxy}-3-methoxyphenyl)acetic acid]	52	29	100	148 to 149
CCC(CC)c1nn(-c2ccc(C(F)(F)F)cn2)cc1CCCOc1c(CC(=O)O)cccc1OC [Example 212, [2-(3-{3-(1-ethylpropyl)-1-[5-(trifluoromethyl)-2-pyridyl]-1H-pyrazol-4-yl}propoxy)-3-methoxyphenyl]acetic acid]	52	55	13	100 to 101
CCc1cccc(CC(=O)O)c1OCCCc1cn(-c2ccc(C(F)(F)F)nn2)nc1C(C)C [Example 245, [3-ethyl-2-(3-{3-isopropyl-1-[6-(trifluoromethyl)pyridazin-3-yl]-1H-pyrazol-4-yl}propoxy)phenyl]acetic acid]	42	55	19	126 to 127
COc1cccc(CC(=O)O)c1OCCCc1cn(-c2ccc(C(F)(F)F)nn2)nc1C(C)C [Example 274, [2-(3-{3-isopropyl-1-[6-(trifluoromethyl)pyridazin-3-yl]-1H-pyrazol-4-yl}propoxy)-3-methoxyphenyl]acetic acid]	50	60	82	92 to 93
CCC(CC)c1nn(-c2ccc(Br)cn2)cc1CCCOc1c(CC(=O)O)cccc1OC [Example 351, (2-{3-[1-(5-bromo-2-pyridinyl)-3-(1-ethylpropyl)-1H-pyrazol-4-yl]propoxy}-3-methoxyphenyl)acetic acid]	51	49	20	94 to 95
CCC(CC)c1nn(-c2ccc(Cl)cn2)cc1CCCOc1c(CC(=O)O)cccc1OC [Example 223, (2-{3-[1-(5-chloro-2-pyridyl)-3-(1-ethylpropyl)-1H-pyrazol-4-yl]propoxy}-3-methoxyphenyl)acetic acid]	38	55	24	85 to 86
